Reference: ChEMBL document CHEMBL2385026, “Identification of C-2 hydroxyethyl imidazopyrrolopyridines as potent JAK1 inhibitors with favorable physicochemical properties and high selectivity over JAK2” (J Med Chem, 2013)
Converted amounts (≈) assume the structure as drawn. Blank lines part the entries; values can stand above or below the compound they belong to. The source made the active and inactive calls. The rule behind the calls is not given here.

How the values were obtained:
[1] = Clearance in cynomolgus monkey at 0.4 mg/kg, iv by LC/MS/MS analysis; assay type: ADME, organism-based, Macaca fascicularis; design: dose 0.4 mg/kg, route intravenous; conditions: in vivo
[2] = AUC in Lewis rat collagen-induced arthritis model at 100 mg/kg, po administered on day 10; assay type: ADME, organism-based; design: dose 100 mg/kg, route oral; conditions: in vivo
[3] = Half life in cynomolgus monkey at 0.4 mg/kg, iv by LC/MS/MS analysis; assay type: ADME, organism-based, Macaca fascicularis; design: dose 0.4 mg/kg, route intravenous; conditions: in vivo
[4] = target: T1, Tyrosine-protein kinase JAK1 (Homo sapiens, UniProt P23458)
T1 sequence (P23458 whole entry): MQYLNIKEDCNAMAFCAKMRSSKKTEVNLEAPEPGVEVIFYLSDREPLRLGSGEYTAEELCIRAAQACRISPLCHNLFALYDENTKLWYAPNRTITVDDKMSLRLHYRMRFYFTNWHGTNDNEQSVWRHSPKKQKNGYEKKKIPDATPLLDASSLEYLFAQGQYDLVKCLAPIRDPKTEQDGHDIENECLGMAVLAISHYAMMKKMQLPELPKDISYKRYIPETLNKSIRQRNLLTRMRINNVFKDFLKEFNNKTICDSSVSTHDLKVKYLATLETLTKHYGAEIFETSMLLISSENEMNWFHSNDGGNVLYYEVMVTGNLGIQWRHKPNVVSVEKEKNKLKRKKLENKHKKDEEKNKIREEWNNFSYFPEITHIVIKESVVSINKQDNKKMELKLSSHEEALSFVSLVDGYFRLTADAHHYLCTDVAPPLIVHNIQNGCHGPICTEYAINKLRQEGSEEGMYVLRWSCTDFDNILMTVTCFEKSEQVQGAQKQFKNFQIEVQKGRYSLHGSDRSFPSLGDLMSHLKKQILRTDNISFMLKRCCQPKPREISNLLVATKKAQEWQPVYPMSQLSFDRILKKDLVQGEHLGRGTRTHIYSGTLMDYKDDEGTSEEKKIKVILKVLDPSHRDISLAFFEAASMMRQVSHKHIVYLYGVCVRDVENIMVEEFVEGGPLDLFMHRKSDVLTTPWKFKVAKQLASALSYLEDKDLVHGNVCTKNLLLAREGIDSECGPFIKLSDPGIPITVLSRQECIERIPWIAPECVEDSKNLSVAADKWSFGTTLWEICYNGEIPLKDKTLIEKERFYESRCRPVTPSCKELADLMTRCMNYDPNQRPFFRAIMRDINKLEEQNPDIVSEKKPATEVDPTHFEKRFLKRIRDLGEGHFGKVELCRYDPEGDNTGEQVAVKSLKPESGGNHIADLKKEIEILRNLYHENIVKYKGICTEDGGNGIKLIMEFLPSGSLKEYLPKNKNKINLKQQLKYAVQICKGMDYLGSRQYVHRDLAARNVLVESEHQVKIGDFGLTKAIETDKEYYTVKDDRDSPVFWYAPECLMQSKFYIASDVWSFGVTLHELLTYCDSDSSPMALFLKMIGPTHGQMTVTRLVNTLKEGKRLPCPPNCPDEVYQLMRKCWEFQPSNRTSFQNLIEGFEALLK

Cytochrome P450 1A2 = target: T2, Cytochrome P450 1A2 (Homo sapiens, UniProt P05177); assay: Reversible inhibition of CYP1A2 in human liver microsomes using phenacetin as substrate by LC/MS/MS analysis; assay type: ADME, Microsome
T2 sequence (P05177 whole entry): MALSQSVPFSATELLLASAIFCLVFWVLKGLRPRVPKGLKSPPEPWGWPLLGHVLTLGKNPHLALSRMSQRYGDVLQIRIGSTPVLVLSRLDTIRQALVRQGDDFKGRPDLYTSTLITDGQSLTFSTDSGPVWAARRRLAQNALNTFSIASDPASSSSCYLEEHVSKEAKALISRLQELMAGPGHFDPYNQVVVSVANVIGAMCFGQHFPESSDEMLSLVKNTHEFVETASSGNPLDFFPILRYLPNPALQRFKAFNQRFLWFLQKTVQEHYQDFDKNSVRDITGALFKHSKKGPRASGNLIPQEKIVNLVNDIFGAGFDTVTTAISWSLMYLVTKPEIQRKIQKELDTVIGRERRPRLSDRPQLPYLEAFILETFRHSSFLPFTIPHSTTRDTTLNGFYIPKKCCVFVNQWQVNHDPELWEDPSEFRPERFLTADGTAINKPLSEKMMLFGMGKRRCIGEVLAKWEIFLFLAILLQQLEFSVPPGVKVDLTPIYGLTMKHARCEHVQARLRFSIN

[5] = Clearance in Beagle dog at 0.4 mg/kg, iv by LC/MS/MS analysis; assay type: ADME, organism-based, Canis lupus familiaris; design: dose 0.4 mg/kg, route intravenous; conditions: in vivo
Rattus norvegicus [6] = assay: Antiarthritic activity in Lewis rat collagen-induced arthritis model assessed as decrease in mean ankle thicknesses at 20 mg/kg, po qd administered for 11 days; assay type: functional, organism-based; design: dose 20 mg/kg
[7] = AUC in Sprague-Dawley rat at 2 mg/kg, po by LC/MS/MS analysis; assay type: ADME, organism-based; design: dose 2 mg/kg, route oral; conditions: plasma
[8] = Oral bioavailability in Beagle dog at 2 mg/kg by LC/MS/MS analysis; assay type: ADME, organism-based, Canis lupus familiaris; conditions: Beagle, in vivo
Cytochrome P450 2D6 = Cytochrome P450 2D6 (Homo sapiens, UniProt P10635)
Cytochrome P450 3A4 [9] = target: T3, Cytochrome P450 3A4 (Homo sapiens, UniProt P08684); assay: Reversible inhibition of CYP3A4 in human liver microsomes using testosterone as substrate by LC/MS/MS analysis; assay type: ADME, Microsome
T3 sequence (P08684 whole entry): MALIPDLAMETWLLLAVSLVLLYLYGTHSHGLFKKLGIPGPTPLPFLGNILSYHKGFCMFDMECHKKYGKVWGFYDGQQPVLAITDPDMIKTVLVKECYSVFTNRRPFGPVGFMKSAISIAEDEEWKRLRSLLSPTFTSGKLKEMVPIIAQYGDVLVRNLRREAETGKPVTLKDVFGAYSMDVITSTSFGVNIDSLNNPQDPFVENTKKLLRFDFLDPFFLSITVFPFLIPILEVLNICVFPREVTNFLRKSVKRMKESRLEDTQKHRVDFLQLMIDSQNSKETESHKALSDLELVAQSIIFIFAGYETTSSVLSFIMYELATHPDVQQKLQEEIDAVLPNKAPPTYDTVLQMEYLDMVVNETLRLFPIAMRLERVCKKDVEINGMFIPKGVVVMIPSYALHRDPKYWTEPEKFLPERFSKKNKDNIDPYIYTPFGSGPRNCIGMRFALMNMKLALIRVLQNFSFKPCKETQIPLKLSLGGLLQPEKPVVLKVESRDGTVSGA

[10] = AUC in cynomolgus monkey at 2 mg/kg, po by LC/MS/MS analysis; assay type: ADME, organism-based, Macaca fascicularis; design: dose 2 mg/kg, route oral; conditions: plasma
[11] = Plasma protein binding in cynomolgus monkey; assay type: ADME, cell-free, Macaca fascicularis; conditions: read-out: PPB (converted)
[12] = Cmax in Sprague-Dawley rat at 2 mg/kg, po by LC/MS/MS analysis; assay type: ADME, organism-based; design: dose 2 mg/kg, route oral; conditions: in vivo
[13] = Plasma protein binding in dog; assay type: ADME, cell-free, Canis lupus familiaris; conditions: read-out: PPB (converted)
[14] = Half life in Beagle dog at 0.4 mg/kg, iv by LC/MS/MS analysis; assay type: ADME, organism-based, Canis lupus familiaris; design: dose 0.4 mg/kg, route intravenous; conditions: in vivo
[15] = target: Tyrosine-protein kinase JAK3 (Homo sapiens, UniProt P52333)
Chain of Tyrosine-protein kinase JAK3 (P52333 whole entry): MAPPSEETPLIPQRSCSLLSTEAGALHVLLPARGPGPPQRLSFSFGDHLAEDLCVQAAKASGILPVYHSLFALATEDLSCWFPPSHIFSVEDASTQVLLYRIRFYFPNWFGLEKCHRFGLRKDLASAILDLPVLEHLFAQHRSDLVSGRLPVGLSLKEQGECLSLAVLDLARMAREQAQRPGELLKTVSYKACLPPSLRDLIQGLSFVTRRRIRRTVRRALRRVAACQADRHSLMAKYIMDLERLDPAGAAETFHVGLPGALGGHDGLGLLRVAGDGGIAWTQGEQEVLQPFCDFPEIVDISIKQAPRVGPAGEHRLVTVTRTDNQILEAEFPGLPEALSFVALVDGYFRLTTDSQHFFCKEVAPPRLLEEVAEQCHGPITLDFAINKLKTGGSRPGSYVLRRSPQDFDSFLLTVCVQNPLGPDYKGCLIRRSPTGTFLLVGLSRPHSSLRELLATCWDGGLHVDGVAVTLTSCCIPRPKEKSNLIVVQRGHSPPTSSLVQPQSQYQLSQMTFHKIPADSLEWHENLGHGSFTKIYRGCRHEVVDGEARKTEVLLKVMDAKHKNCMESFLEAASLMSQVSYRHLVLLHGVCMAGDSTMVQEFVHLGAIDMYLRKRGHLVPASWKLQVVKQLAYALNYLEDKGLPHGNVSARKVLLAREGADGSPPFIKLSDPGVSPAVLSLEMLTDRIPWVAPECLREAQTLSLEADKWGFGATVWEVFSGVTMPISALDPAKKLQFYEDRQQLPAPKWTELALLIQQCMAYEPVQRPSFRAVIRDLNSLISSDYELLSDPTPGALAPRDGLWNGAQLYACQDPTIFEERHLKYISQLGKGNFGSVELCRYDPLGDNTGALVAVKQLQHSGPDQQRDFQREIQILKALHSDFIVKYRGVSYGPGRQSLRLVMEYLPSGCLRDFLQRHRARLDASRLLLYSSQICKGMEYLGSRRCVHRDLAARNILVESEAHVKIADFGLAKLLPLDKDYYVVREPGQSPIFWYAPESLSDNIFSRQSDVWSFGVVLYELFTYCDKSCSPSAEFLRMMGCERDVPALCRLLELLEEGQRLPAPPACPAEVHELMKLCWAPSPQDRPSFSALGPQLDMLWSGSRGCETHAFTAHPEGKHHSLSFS

[16] = AUC in Lewis rat collagen-induced arthritis model at 500 mg/kg, po administered on day 10; assay type: ADME, organism-based; design: dose 500 mg/kg, route oral; conditions: in vivo
[17] = target: T1, Tyrosine-protein kinase JAK1; remark: listed apart in the source
[18] = AUC in Beagle dog at 2 mg/kg, po by LC/MS/MS analysis; assay type: ADME, organism-based, Canis lupus familiaris; design: dose 2 mg/kg, route oral; conditions: plasma
Cytochrome P450 3A4 [19] = target: T3, Cytochrome P450 3A4; assay: Reversible inhibition of CYP3A4 in human liver microsomes using midazolam as substrate by LC/MS/MS analysis; assay type: ADME, Microsome
Cytochrome P450 2C19 = Cytochrome P450 2C19 (Homo sapiens, UniProt P33261)
Chain of Cytochrome P450 2C19 (P33261 whole entry): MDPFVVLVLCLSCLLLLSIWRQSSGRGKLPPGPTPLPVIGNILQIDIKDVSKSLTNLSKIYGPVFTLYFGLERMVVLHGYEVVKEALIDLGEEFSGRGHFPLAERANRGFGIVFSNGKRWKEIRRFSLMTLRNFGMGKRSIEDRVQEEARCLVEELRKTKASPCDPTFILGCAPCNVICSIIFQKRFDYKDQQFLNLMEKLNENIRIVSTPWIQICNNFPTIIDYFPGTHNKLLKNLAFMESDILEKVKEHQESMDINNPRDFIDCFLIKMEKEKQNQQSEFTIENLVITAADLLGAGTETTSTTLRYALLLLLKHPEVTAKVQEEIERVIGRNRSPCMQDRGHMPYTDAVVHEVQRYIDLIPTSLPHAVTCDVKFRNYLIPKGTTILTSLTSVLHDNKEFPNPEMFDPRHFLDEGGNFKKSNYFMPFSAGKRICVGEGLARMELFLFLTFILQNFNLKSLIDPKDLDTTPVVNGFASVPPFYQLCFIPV

[20] = Cmax in cynomolgus monkey at 2 mg/kg, po by LC/MS/MS analysis; assay type: ADME, organism-based, Macaca fascicularis; design: dose 2 mg/kg, route oral; conditions: in vivo
[21] = Oral bioavailability in Sprague-Dawley rat at 2 mg/kg by LC/MS/MS analysis; assay type: ADME, organism-based; conditions: Sprague-Dawley, in vivo
[22] = target: T4, Non-receptor tyrosine-protein kinase TYK2 (Homo sapiens, UniProt P29597)
T4 sequence (P29597 whole entry): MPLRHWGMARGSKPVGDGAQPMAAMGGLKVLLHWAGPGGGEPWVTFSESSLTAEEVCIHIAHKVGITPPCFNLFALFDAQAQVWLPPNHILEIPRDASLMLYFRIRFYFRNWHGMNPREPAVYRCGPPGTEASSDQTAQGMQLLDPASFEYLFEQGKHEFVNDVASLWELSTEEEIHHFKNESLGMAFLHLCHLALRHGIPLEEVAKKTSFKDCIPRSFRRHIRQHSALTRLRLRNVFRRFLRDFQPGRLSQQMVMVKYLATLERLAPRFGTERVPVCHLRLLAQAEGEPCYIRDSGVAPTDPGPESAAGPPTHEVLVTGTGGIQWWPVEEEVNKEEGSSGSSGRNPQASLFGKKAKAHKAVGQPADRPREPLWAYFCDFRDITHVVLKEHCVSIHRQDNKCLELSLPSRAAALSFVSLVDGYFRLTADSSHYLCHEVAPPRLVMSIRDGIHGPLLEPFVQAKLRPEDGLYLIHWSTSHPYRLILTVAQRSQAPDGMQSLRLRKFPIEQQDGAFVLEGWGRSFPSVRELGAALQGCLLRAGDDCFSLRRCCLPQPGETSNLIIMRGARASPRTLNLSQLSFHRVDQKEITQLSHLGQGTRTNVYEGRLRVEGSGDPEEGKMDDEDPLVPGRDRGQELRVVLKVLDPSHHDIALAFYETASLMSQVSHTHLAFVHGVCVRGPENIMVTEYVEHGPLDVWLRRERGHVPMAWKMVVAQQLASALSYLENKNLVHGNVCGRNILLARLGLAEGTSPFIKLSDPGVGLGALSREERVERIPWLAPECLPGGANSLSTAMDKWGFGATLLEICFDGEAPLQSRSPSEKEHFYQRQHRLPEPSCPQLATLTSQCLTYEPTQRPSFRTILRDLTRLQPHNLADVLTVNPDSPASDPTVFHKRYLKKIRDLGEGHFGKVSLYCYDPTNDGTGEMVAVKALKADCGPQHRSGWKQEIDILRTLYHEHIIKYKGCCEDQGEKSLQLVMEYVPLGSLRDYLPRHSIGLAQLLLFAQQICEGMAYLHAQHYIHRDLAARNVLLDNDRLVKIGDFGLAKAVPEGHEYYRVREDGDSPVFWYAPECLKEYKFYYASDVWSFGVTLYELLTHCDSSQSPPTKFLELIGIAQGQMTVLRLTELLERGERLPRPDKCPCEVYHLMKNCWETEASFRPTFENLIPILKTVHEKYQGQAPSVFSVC

[23] = tested on: Platelet-derived growth factor receptor alpha (Homo sapiens), P16234 [V561D]; assay: Inhibition of PDGFRalpha V561D mutant (unknown origin) at 1 uM
[24] = Apparent permeability across apical to basolateral side in dog MDCK cells; assay type: ADME, cell-based, Canis lupus familiaris
[25] = target: T4, Non-receptor tyrosine-protein kinase TYK2; remark: listed apart in the source
[26] = Thermodynamic solubility in aqueous buffer at pH 7.4; assay type: physicochemical; conditions: read-out: Therm_solubility
[27] = AUC in Lewis rat collagen-induced arthritis model at 20 mg/kg, po administered on day 20; assay type: ADME, organism-based; design: dose 20 mg/kg, route oral; conditions: in vivo
[28] = Apparent permeability across basolateral to apical side in dog MDCK cells; assay type: ADME, cell-based, Canis lupus familiaris
Rattus norvegicus [29] = assay: Antiarthritic activity in Lewis rat collagen-induced arthritis model assessed as decrease in mean ankle thicknesses at 500 mg/kg, po qd administered for 11 days; assay type: functional, organism-based; design: dose 500 mg/kg
[30] = Hepatic clearance in human hepatocytes after 1 to 4 hrs by LC/MS/MS analysis; assay type: ADME, cell-based, Liver, Hepatocyte
[31] = Metabolic stability in rat hepatocytes assessed as hepatic clearance; assay type: ADME, cell-based, Liver, Hepatocyte
[32] = Half life in Sprague-Dawley rat at 0.4 mg/kg, iv by LC/MS/MS analysis; assay type: ADME, organism-based; design: dose 0.4 mg/kg, route intravenous; conditions: in vivo
[33] = Hepatic clearance in human liver microsomes by LC/MS/MS analysis; assay type: ADME, Microsome
[34] = Clearance in Sprague-Dawley rat at 0.4 mg/kg, iv by LC/MS/MS analysis; assay type: ADME, organism-based; design: dose 0.4 mg/kg, route intravenous; conditions: in vivo
[35] = target: Voltage-gated inwardly rectifying potassium channel KCNH2 (Homo sapiens, UniProt Q12809)
[36] = AUC in Lewis rat collagen-induced arthritis model at 500 mg/kg, po administered on day 20; assay type: ADME, organism-based; design: dose 500 mg/kg, route oral; conditions: in vivo
Rattus norvegicus [37] = assay: Antiarthritic activity in Lewis rat collagen-induced arthritis model assessed as decrease in mean ankle thicknesses at 100 mg/kg, po qd administered for 11 days; assay type: functional, organism-based; design: dose 100 mg/kg
[38] = Metabolic stability in monkey hepatocytes assessed as hepatic clearance; assay type: ADME, cell-based, Macaca mulatta, Liver, Hepatocyte; conditions: rhesus monkey
[39] = Oral bioavailability in cynomolgus monkey at 2 mg/kg by LC/MS/MS analysis; assay type: ADME, organism-based, Macaca fascicularis; conditions: in vivo
[40] = Metabolic stability in dog hepatocytes assessed as hepatic clearance; assay type: ADME, cell-based, Canis lupus familiaris, Liver, Hepatocyte
[41] = AUC in Lewis rat collagen-induced arthritis model at 100 mg/kg, po administered on day 20; assay type: ADME, organism-based; design: dose 100 mg/kg, route oral; conditions: in vivo
[42] = Plasma protein binding in rat; assay type: ADME, cell-free; conditions: read-out: PPB (converted)
[43] = target: T1, Tyrosine-protein kinase JAK1; remark: listed apart in the source
[44] = Thermodynamic solubility in aqueous buffer at pH 2; assay type: physicochemical; conditions: read-out: Therm_solubility
[45] = Cmax in Beagle dog at 2 mg/kg, po by LC/MS/MS analysis; assay type: ADME, organism-based, Canis lupus familiaris; design: dose 2 mg/kg, route oral; conditions: in vivo
Cytochrome P450 2C9 = Cytochrome P450 2C9 (Homo sapiens, UniProt P11712)
Chain of Cytochrome P450 2C9 (P11712 whole entry): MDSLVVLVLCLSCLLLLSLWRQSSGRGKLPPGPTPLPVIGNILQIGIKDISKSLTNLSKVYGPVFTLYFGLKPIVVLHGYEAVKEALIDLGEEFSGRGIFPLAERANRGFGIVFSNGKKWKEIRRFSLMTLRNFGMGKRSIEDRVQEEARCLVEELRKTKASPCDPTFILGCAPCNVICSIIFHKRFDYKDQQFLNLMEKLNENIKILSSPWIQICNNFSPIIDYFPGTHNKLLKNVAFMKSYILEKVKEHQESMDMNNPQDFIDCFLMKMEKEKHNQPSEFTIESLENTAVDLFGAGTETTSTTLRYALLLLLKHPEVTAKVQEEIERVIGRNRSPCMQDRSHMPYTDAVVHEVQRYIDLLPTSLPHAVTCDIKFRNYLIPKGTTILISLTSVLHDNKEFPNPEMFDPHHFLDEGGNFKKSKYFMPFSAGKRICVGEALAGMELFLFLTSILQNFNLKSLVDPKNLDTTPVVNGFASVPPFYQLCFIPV

[46] = AUC in Lewis rat collagen-induced arthritis model at 20 mg/kg, po administered on day 10; assay type: ADME, organism-based; design: dose 20 mg/kg, route oral; conditions: in vivo
[47] = target: Macrophage colony-stimulating factor 1 receptor (Homo sapiens) (UniProt P07333); assay: Inhibition of CSF1R (unknown origin) at 1 uM
[48] = target: Leucine-rich repeat serine/threonine-protein kinase 2 (Homo sapiens) (UniProt Q5S007); assay: Inhibition of LRRK2 (unknown origin) at 1 uM

clearance [1]: 18 mL/min/kg
AUC [2]: 59.6 µM·h
half-life [3]: 1.7 h
EC50 [4]: 130 nM
IC50 (Cytochrome P450 1A2): > 10000 nM
clearance [5]: 16 mL/min/kg
AUC [7]: 0.94 µM·h
bioavailability [8]: 119%
IC50 (Cytochrome P450 2D6): > 10000 nM
IC50 (Cytochrome P450 3A4 [9]): > 10000 nM
AUC [10]: 3.9 µM·h
fraction unbound [11]: 0.4
Cmax [12]: 420 nM
fraction unbound [13]: 0.53
half-life [14]: 2.2 h
Ki [15]: 280 nM
AUC [16]: 467 µM·h
Ki [17]: 1.9 nM
AUC [18]: 8.3 µM·h
IC50 (Cytochrome P450 3A4 [19]): 7900 nM
IC50 (Cytochrome P450 2C19): > 10000 nM
Cmax [20]: 630 nM
bioavailability [21]: 52%
Ki [22]: 12 nM
inhibition [23]: 55%
Papp A→B [24]: 2.7 ×10⁻⁶ cm/s
EC50 [25]: 5600 nM
solubility thermodynamic [26]: 1900 µM (≈ 588 µg/mL)
AUC [27]: 10.6 µM·h
Papp B→A [28]: 4.7 ×10⁻⁶ cm/s
CLhep predicted [30]: 1.7 mL/min/kg
CLhep predicted [31]: 3.7 mL/min/kg
half-life [32]: 0.5 h
CLhep predicted [33]: 3.3 mL/min/kg
clearance [34]: 60 mL/min/kg
AUC [36]: 269 µM·h
CLhep predicted [38]: 2.4 mL/min/kg
bioavailability [39]: 65%
CLhep predicted [40]: 3 mL/min/kg
AUC [41]: 50.1 µM·h
fraction unbound [42]: 0.62
EC50 [43]: 120 nM
solubility thermodynamic [44]: > 4000 µM
Cmax [45]: 2100 nM
IC50 (Cytochrome P450 2C9): > 10000 nM
AUC [46]: 15 µM·h
SMILES: C[C@@H](O)c1nc2cnc3[nH]ccc3c2n1[C@H]1CC[C@H](C#N)CC1
Activity (Rattus norvegicus [6]): Active
Activity (Rattus norvegicus [29]): Active
IC50 [35]: > 100000 nM
Activity (Rattus norvegicus [37]): Active

EC50 [4]: 51 nM
IC50 (Cytochrome P450 1A2): > 10000 nM
clearance [5]: 14 mL/min/kg
AUC [7]: 1 µM·h
bioavailability [8]: 131%
IC50 (Cytochrome P450 2D6): > 10000 nM
IC50 (Cytochrome P450 3A4 [9]): > 10000 nM
fraction unbound [11]: 0.44
Cmax [12]: 980 nM
fraction unbound [13]: 0.41
half-life [14]: 1.2 h
Ki [15]: 53 nM
Ki [17]: 2 nM
AUC [18]: 9 µM·h
IC50 (Cytochrome P450 3A4 [19]): > 10000 nM
IC50 (Cytochrome P450 2C19): > 10000 nM
bioavailability [21]: 61%
Ki [22]: 20 nM
Papp A→B [24]: 10 ×10⁻⁶ cm/s
EC50 [25]: 2200 nM
solubility thermodynamic [26]: 70 µM (≈ 25.7 µg/mL)
Papp B→A [28]: 18 ×10⁻⁶ cm/s
CLhep predicted [30]: 3.6 mL/min/kg
CLhep predicted [31]: 14 mL/min/kg
half-life [32]: 1.1 h
CLhep predicted [33]: 3.8 mL/min/kg
clearance [34]: 55 mL/min/kg
inhibition [47]: 75%
CLhep predicted [38]: 27 mL/min/kg
CLhep predicted [40]: 9.8 mL/min/kg
inhibition [48]: 72%
fraction unbound [42]: 0.51
EC50 [43]: 70 nM
solubility thermodynamic [44]: > 4000 µM
Cmax [45]: 3000 nM
IC50 (Cytochrome P450 2C9): > 10000 nM
SMILES: C[C@@H](O)c1nc2cnc3[nH]ccc3c2n1[C@H]1CC[C@@H](NCC(F)(F)F)C1
